According to patent publication US20170248578A1, “ANTI-CANCER AGENT SENSITIVITY-DETERMINING MARKER” (KEIO UNIVERSITY, priority 2014, published 2017):
Values joined by “and” are separate entries in the source; they are usually repeats but may differ in a detail not shown here. Equal entries are not always repeated.

Experiments:
Type in all cases: cell-based, human
[1] = system: HT29 into which siRNA had been introduced; assay: Sensitivity to oxaliplatin after introduction of siRNA, MTS assay; conditions: for sensitivity to oxaliplatin compared to the case where the control siRNA had been introduced: HT29, 150 pmol siRNA per well
Method: (§1) The aforementioned nine human colorectal cancer cell lines were respectively inoculated onto a 96 well plate at a density of 1,500 cells/well, and after 24 hours, oxaliplatin was added thereto. The cell survival rate after 48 hours of drug exposure was evaluated by the MTS assay (CellTiter96™ AQueous One Solution Cell Proliferation Assay, Promega), and the IC50 values were determined from the absorbance values. Regarding the drug exposure conditions, eleven conditions such as Control (0 μM), 0.001 μM, 0.01 μM, 0.1 μM, 0.3 μM, 1 μM, 3 μM, 10 μM, 30 μM, 100 μM, and 1,000 μM were used. The evaluation of sensitivity was performed three times with cells of different passage numbers, by measuring three samples each for the respective cell lines, drug exposure time, and drug exposure conditions in a single time test. An analysis was carried out based on the survival rate calculated from the results of the MTS assay.
(§2) Among the nine kinds of colorectal cancer cell lines described in Test Example 1, Ls174T was used as an oxaliplatin-high-sensitivity cell line, HCT116 was used as a moderate-sensitivity cell line, and HT29 and DLD-1 were used as low-sensitivity cell lines.
(§3) Each of the human colorectal cancer cell lines was inoculated into a 6-well plate at a density of 1×10^5 cells/well, and after 24 hours, the medium was replaced with serum-free DMEM medium (Wako, 044-29765). A solution obtained by dissolving 150 pmol per well of each of the siRNAs indicated in Table 8 in 250 μL of Opti MEM (GIBCO, No. 319985) was mixed with a solution obtained by mixing 4.5 μL of Lipofectamin RNAiMAX Reagent (Invitrogen, No. 13778-150) and 250 μL of Opti MEM (GIBCO, No. 319985). The resultant mixture was incubated for 10 to 20 minutes. After incubation, 500 μL each of the mixture was added to each well of the 6-well plate on which the human colorectal cancer cell lines were cultured, and the medium in each well was replaced with a serum-added DMEM medium (Wako, 044-29765) 4 to 6 hours after the addition. The cells were collected 24 hours after the addition of siRNA.
(§4) Regarding the control siRNA, siRNA of No. 4390843 of Life Technologies, Inc. was used.
(§5) Measurement of the sensitivity to oxaliplatin (measurement of IC50 values) of the human colorectal cancer cell lines into which siRNA had been introduced, was performed by the method described in Test Example 1(1)(c).

[2] = system: HCT116 into which siRNA had been introduced; assay: as above; conditions: for sensitivity to oxaliplatin compared to the case where the control siRNA had been introduced: HCT116, 150 pmol siRNA per well
Method: as §1, §2, §3, §4, §5

[3] = system: Ls174T into which siRNA had been introduced; assay: as above; conditions: for sensitivity to oxaliplatin compared to the case where the control siRNA had been introduced: 150 pmol siRNA per well
Method: as §1, §2, §3, §4, §5

[4] = system: DLD-1 into which siRNA had been introduced; assay: as above
Method: as §1, §2, §3, §4, §5

[5] = system: HT29; assay: Sensitivity to oxaliplatin, MTS assay; conditions: HT29, 48 hours of drug exposure, cell survival rate by MTS assay
Method: (§6) Nine human colorectal cancer cell lines (SW480, Ls174T, Lovo, SW620, HCT116, HCT15, HT29, DLD-1, and WiDr) were obtained from the following sources (Table 1).
(§7) Culture was carried out under the conditions of 0100 mm/Tissue Culture Dish (IWAKI), culture medium (D-MEM, 2 mM Glutamine, 10% Fetal Bovine Serum), 37° C., and 5% CO2.
as §1

[6] = system: HCT15; assay: Sensitivity to oxaliplatin, MTS assay; conditions: HCT15, 48 hours of drug exposure, cell survival rate by MTS assay
Method: as §6, §7, §1

[7] = system: Lovo; assay: Sensitivity to oxaliplatin, MTS assay; conditions: 48 hours of drug exposure, cell survival rate by MTS assay
Method: as §6, §7, §1

[8] = system: WiDr; assay: Sensitivity to oxaliplatin, MTS assay; conditions: 48 hours of drug exposure, cell survival rate by MTS assay
Method: as §6, §7, §1

[9] = system: SW620; assay: Sensitivity to oxaliplatin, MTS assay; conditions: SW620, 48 hours of drug exposure, cell survival rate by MTS assay
Method: as §6, §7, §1

[10] = system: HCT116; assay: Sensitivity to oxaliplatin, MTS assay; conditions: HCT116, 48 hours of drug exposure, cell survival rate by MTS assay
Method: as §6, §7, §1

[11] = system: Ls174T; assay: Sensitivity to oxaliplatin, MTS assay; conditions: 48 hours of drug exposure, cell survival rate by MTS assay
Method: as §6, §7, §1

[12] = system: SW480; assay: Sensitivity to oxaliplatin, MTS assay; conditions: SW480, 48 hours of drug exposure, cell survival rate by MTS assay
Method: as §6, §7, §1

[13] = system: DLD-1; assay: Sensitivity to oxaliplatin, MTS assay; conditions: DLD-1, 48 hours of drug exposure, cell survival rate by MTS assay
Method: as §6, §7, §1

## PHB siRNA: siRNA CGUGGGUACAGAAACCAAUtt (life technologies, s10424), SEQ ID NO: 1 (CGUGGGUACAGAAACCAAUTT; chemistry not given here)
[1]
  sensitivity to oxaliplatin compared to the case where the control siRNA had been introduced: decreased
[2]
  sensitivity to oxaliplatin compared to the case where the control siRNA had been introduced: decreased
[3]
  sensitivity to oxaliplatin compared to the case where the control siRNA had been introduced: decreased
[4]; DLD-1, 150 pmol siRNA per well
  sensitivity to oxaliplatin compared to the case where the control siRNA had been introduced: decreased

## IPYR siRNA: siRNA GGAAUCAGUUGCAUGAAUAtt (life technologies, s10878), SEQ ID NO: 5 (GGAAUCAGUUGCAUGAAUATT; chemistry not given here)
[3]
  sensitivity to oxaliplatin compared to the case where the control siRNA had been introduced: enhanced

## TALDO siRNA: siRNA UGCUAUUGAUAAACUUUUUtt (life technologies, s13776), SEQ ID NO: 3 (UGCUAUUGAUAAACUUUUUTT; chemistry not given here)
[1]
  sensitivity to oxaliplatin compared to the case where the control siRNA had been introduced: enhanced
[2]
  sensitivity to oxaliplatin compared to the case where the control siRNA had been introduced: enhanced
[3]
  sensitivity to oxaliplatin compared to the case where the control siRNA had been introduced: enhanced

## O=C1[O][Pt]2([NH][C@@H]3CCCC[C@H]3[NH]2)[O]C1=O [oxaliplatin, (SP-4-2)-[(1R,2R)-cyclohexane-1,2-diamine-κN, κN′] [ethanedio ato(2-)-κO^1, κO^2]platinum]
[5]
  IC50: 7.99 ± 2.66 µM
[6]
  IC50: 1.45 ± 0.44 µM
[7]
  IC50: 0.79 ± 0.18 µM
[8]
  IC50: 17.7 ± 8.39 µM
[9]
  IC50: 1.14 ± 0.74 µM
[10]
  IC50: 1.15 ± 0.34 µM
[11]
  IC50: 0.61 ± 0.11 µM
[12]
  IC50: 0.43 ± 0.13 µM
[13]
  IC50: 13.9 ± 6.29 µM
[1]; HT29, ANXA5 siRNA introduced
  IC50: 5.35 µM
[1]; HT29, Control siRNA introduced
  IC50: 16.1 µM
[1]; HT29, PHB siRNA introduced
  IC50: 41.9 µM
[1]; HT29, TALDO siRNA introduced
  IC50: 2.77 µM
[2]; HCT116, ANXA5 siRNA introduced
  IC50: 0.76 µM
[2]; HCT116, C1QBP siRNA introduced
  IC50: 2.18 µM
[2]; HCT116, Control siRNA introduced
  IC50: 1.72 µM and 1.39 µM and 1.53 µM and 1.34 µM
[2]; HCT116, PHB siRNA introduced
  IC50: 21.5 µM
[2]; HCT116, TALDO siRNA introduced
  IC50: 0.73 µM
[3]; Control siRNA introduced
  IC50: 0.86 µM and 0.68 µM
[3]; IPYR siRNA introduced
  IC50: 0.39 µM
[3]; PHB siRNA introduced
  IC50: 11.9 µM
[3]; TALDO siRNA introduced
  IC50: 0.43 µM
[4]; DLD-1, Control siRNA introduced
  IC50: 14.7 µM
[4]; DLD-1, PHB siRNA introduced
  IC50: 52.3 µM

## ANXA5 siRNA: siRNA GUACAUGACUAUAUCAGGAtt (life technologies, s1392), SEQ ID NO: 2 (GUACAUGACUAUAUCAGGATT; chemistry not given here)
[1]
  sensitivity to oxaliplatin compared to the case where the control siRNA had been introduced: enhanced
[2]
  sensitivity to oxaliplatin compared to the case where the control siRNA had been introduced: enhanced

## C1QBP siRNA: siRNA GGCCUUAUAUGACCACCUAtt (life technologies, s2139), SEQ ID NO: 4 (GGCCUUAUAUGACCACCUATT; chemistry not given here)
[2]
  sensitivity to oxaliplatin compared to the case where the control siRNA had been introduced: decreased
